Source: PubChem BioAssay (NCI)
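96-well plates; 48 h exposure; 5 concentrations. Endpoints by linear interpolation between flanking doses. Not reached: highest tested concentration assigned. Abbreviation: GI50, concentration required for 50% inhibition of growth. At the TGI there is no net growth.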

What was measured:
Test in all cases: inhibition of tumour cell growth, NCI panel, 48 h
UO-31 renal = system: UO-31 renal
SK-OV-3 ovarian = system: SK-OV-3 ovarian
HCT-15 colon = system: HCT-15 colon
MDA-MB-435 = system: MDA-MB-435
HCT-116 colon = system: HCT-116 colon
SNB-75 CNS = system: SNB-75 CNS
MALME-3M melanoma = system: MALME-3M melanoma
SW-620 colon = system: SW-620 colon
OVCAR-5 ovarian = system: OVCAR-5 ovarian
CAKI-1 renal = system: CAKI-1 renal

| Compound | GI50 (UO-31 renal) [µM] | TGI (UO-31 renal) [µM] | GI50 (SK-OV-3 ovarian) [µM] | TGI (SK-OV-3 ovarian) [µM] | GI50 (HCT-15 colon) [µM] | TGI (HCT-15 colon) [µM] | GI50 (MDA-MB-435) [µM] | TGI (MDA-MB-435) [µM] | GI50 (HCT-116 colon) [µM] | TGI (HCT-116 colon) [µM] | GI50 (SNB-75 CNS) [µM] | TGI (SNB-75 CNS) [µM] | GI50 (MALME-3M melanoma) [µM] | TGI (MALME-3M melanoma) [µM] | GI50 (SW-620 colon) [µM] | TGI (SW-620 colon) [µM] | GI50 (OVCAR-5 ovarian) [µM] | TGI (OVCAR-5 ovarian) [µM] | GI50 (CAKI-1 renal) [µM] | TGI (CAKI-1 renal) [µM] |
| --- | --- | --- | --- | --- | --- | --- | --- | --- | --- | --- | --- | --- | --- | --- | --- | --- | --- | --- | --- | --- |
| COc1ccccc1NS(=O)(=O)c1ccc2oc(SC(C)C)nc2c1 | 18.4 | 70.3 | 33.5 | > 100 | 29.4 | > 100 | 18.7 | 94 | 8.35 | > 100 | 27.4 | 84.3 | 12.9 | 37.5 | 31.6 | > 100 | 48.9 | > 100 | 17 | 68.9 |
| CN(C)c1ccc(/C=c2/c3ccccc3n3c2c2cc(F)ccc2[n+]3C)cc1 | 8.21 | > 34.3 | 34.1 | > 100 | 18.8 | > 57.6 | 3.84 | 11.9 | 4.78 | > 100 | 8.07 | 20.3 | 1.87 | 7.54 | 3.17 | 15.2 | 16.2 | 31.5 | 11.6 | 29.4 |
| CCS(=O)(=O)c1ccc(OC)c(Nc2ncc(-c3ccccc3Cl)o2)c1 | 6.37 | > 25 | 8.47 | > 25 | 9.01 | > 25 | 6.73 | > 22.1 | 10.1 | > 25 | 9.11 | 24.6 | > 25 | > 25 | 8.38 | > 25 | 10.9 | > 25 | 24.3 | > 25 |
| Cc1cccc(NC(=O)/C=C/c2ccc([N+](=O)[O-])cc2)c1 |  | > 50.4 |  | > 61.5 |  | > 56.7 |  | > 52.3 |  | > 52.9 |  | > 60.4 |  | 66.9 |  | > 60.2 |  | > 57 |  | > 54.4 |
| Cc1cnc(Nc2ccc(N3CCN(C)CC3)cc2)nc1Nc1ccc(Cl)c(NS(=O)(=O)C(C)(C)C)c1 | 0.0877 | 1.29 | 0.0972 | 0.808 | 0.168 | 3.18 | 0.17 | 10.7 | 0.0917 | 2.73 | < 0.0256 | 0.828 | 0.69 | 2.62 | 0.232 | 5.45 | 0.219 | 13.4 | 0.0621 | 2.09 |
| C=C(C)C(=O)O[C@@H]1C/C(C)=C\[C@H](OC(C)=O)C[C@](C)(O)/C=C2/OC(=O)C(COC(C)=O)=C21 |  | 3.26 |  | 18.7 |  | 0.786 |  | 2.8 |  | 1.7 |  | 16 |  | 0.979 |  | 1.93 |  | 4.55 |  | 0.99 |
| COc1cc(C2C3=C(COC3=O)N(CCO)c3cc4c(cc32)OCO4)cc(OC)c1O (stereo not given) | 2.02 | > 37.2 | 2.03 | > 26.7 | 8.01 | > 50 | 0.343 | 1.53 | 1.88 | > 26.3 | 1.12 | 3.51 | 1.96 | > 50 | 1.71 | > 50 | 23.1 | > 50 | 5.4 | > 41 |
| COc1ccc(/C=C\c2cc(OC)c(OC)c(OC)c2)cc1OCC(=O)Nc1ccc2nc(C)sc2c1 | 2.41 | 7.5 | 5.27 | 50.4 | 2.8 | 10.4 | 2.13 | 6.18 | 3.57 | > 100 | 1.55 | 7.37 | 2.84 | 8.29 | 4.7 | 31.9 | 6.69 | > 100 | 2.19 | 5.85 |
| COc1ccc(C(CC(=O)c2ccccc2)C(C(=O)c2ccccc2)C(c2ccc(OC)cc2)C2C(=O)NC(=S)NC2=O)cc1 (stereo not given) | 7.32 | 26.1 | > 100 | > 100 | 12.9 | 37.2 | 10.6 | 35.3 | 15.4 | 37.4 | 31.2 | > 100 | 19.8 | 58.4 | 14.3 | 39.9 | 13.9 | 37.7 | 2.53 | 11.8 |
| c1ccc([As]=[As]c2ccccc2)cc1 (stereo not given) | 0.973 | 2.39 | 1.82 | 3.48 | 0.416 | 2.24 | 1.27 | 2.72 | 1.14 | 3.7 | 0.698 | 2.65 | 1.29 | 3.23 | 0.586 | 2.02 | 1.5 | 3.07 | 1.31 | 3.22 |
